Target: T1, YTH domain of YTHDF1 (Homo sapiens, UniProt Q9BYJ9)
T1 sequence (Q9BYJ9 361-559): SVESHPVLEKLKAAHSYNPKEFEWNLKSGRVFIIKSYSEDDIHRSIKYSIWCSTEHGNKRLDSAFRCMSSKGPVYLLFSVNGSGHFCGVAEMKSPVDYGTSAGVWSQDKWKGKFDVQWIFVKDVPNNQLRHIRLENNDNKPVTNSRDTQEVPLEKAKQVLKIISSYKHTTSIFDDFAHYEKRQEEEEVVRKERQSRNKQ
Assay: SPR competition
Format: binding

`CCCCCNC(=N)N/N=C/c1c[nH]c2ccc(OC)cc12` [tegaserod] showed an IC50 of 13.8 µM.
